Measured values from patent publication US8912121B2, “Herbicidal compositions comprising 4-amino-3-chloro-5-fluoro-6-(4-chloro-2-fluoro-3-methoxyphenyl)pyridine-2-carboxylic acid or a derivative thereof and certain PS II inhibitors” (Dow Agrosciences LLC, priority 2012, dated 2014).

Columns and labels:
[1] = test system: IPOHE (Ipomoea hederacea, ivyleaf morningglory); assay: Postemergence foliar-applied mixtures, direct seeded rice, greenhouse; type: in vivo, Ipomoea hederacea Jacq.; conditions: post-emergence
Source text: (§1) Seeds or nutlets of the desired test plant species were planted in a soil matrix prepared by mixing a loam or sandy loam soil (e.g., 28.6 percent silt, 18.8 percent clay, and 52.6 percent sand, with a pH of about 5.8 and an organic matter content of about 1.8 percent) and calcareous grit in an 80 to 20 ratio. The soil matrix was contained in plastic pots with a volume of 1 quart and a surface area of 83.6 square centimeters (cm^2). When required to ensure good germination and healthy plants, a fungicide treatment and/or other chemical or physical treatment was applied. The plants were grown for 8-22 days in a greenhouse with an approximate 14 h photoperiod which was maintained at about 29° C. during the day and 26° C. during the night. Nutrients (Peters Excel® 15-5-15 5-Ca 2-Mg and iron chelate) were applied in the irrigation solution as needed and water was added on a regular basis. Supplemental lighting was provided with overhead metal halide 1000-Watt lamps as necessary. The plants were employed for testing when they reached the first through fourth true leaf stage.
(§2) Treatments consisted of the acid or esters of 4-amino-3-chloro-5-fluoro-6-(4-chloro-2-fluoro-3-methoxy-phenyl) pyridine-2-carboxylic acid (Compound A), each formulated as an SC (suspension concentrate), and various herbicidal components alone and in combination. Forms of compound A were applied on an acid equivalent basis.
(§3) Other herbicidal components were applied on an active ingredient basis and included Photosystem II (PSII)-inhibiting herbicides propanil formulated as Stam® M4 EC, bentazon-sodium formulated as Basagran®, atrazine formulated as Atrazine 90 WDG, bromoxynil octanoate ester formulated as Buctril®, simetryne (technical grade material), simazine formulated as Princep® Caliber 90, ioxynil (technical grade material), cyanazine (technical grade material), and hexazinone (technical grade material).
(§4) Treatment requirements were calculated based upon the rates being tested, the concentration of active ingredient or acid equivalent in the formulation, and a 12 mL application volume at a rate of 187 L/ha.
(§5) For treatments comprised of formulated compounds, measured amounts of compounds were placed individually in 25 mL glass vials and diluted in a volume of 1.25% (v/v) Agri-Dex® crop oil concentrated to obtain 12× stock solutions. […] Application solutions were prepared by adding an appropriate amount of each stock solution (e.g., 1 mL) and diluted to the appropriate final concentrations with the addition of 10 mL of an aqueous mixture of 1.25% (v/v) crop oil concentrate so that the final spray solutions contained 1.25+/−0.05% (v/v) crop oil concentrate.
(§6) For treatments comprised of technical compounds, weighed amounts can be placed individually in 25 mL glass vials and dissolved in a volume of 97:3 v/v acetone/DMSO to obtain 12× stock solutions. […] Application solutions can be prepared by adding an appropriate amount of each stock solution (e.g., 1 mL) and diluted to the appropriate final concentrations with the addition of 10 mL of an aqueous mixture of 1.5% (v/v) crop oil concentrate so that the final spray solutions contain 1.25% (v/v) crop oil concentrate. When technical materials are used, the concentrated stock solutions can be added to the spray solutions so that the final acetone and DMSO concentrations of the application solutions are 16.2% and 0.5%, respectively.
(§7) For treatments comprised of formulated and technical compounds, weighed amounts of the technical materials were placed individually in 25 mL glass vials and dissolved in a volume of 97:3 v/v acetone/DMSO to obtain 12× stock solutions, and measured amounts of the formulated compounds were placed individually in 25 mL glass vials and diluted in a volume of 1.5% (v/v) crop oil concentrate or water to obtain 12× stock solutions. […]

[2] = test system: BRAPP (Brachiaria platyphylla, broadleaf signalgrass); assay: Pre-emergence soil-applied mixtures, greenhouse; type: in vivo, Brachiaria platyphylla (Groseb.) Nash; conditions: 27 DAA
Source text: (§8) Seeds or nutlets of the desired test plant species were planted in a soil matrix prepared by mixing a loam soil (32 percent silt, 23 percent clay, and 45 percent sand, with a pH of about 6.5 and an organic matter content of about 1.9 percent) and calcareous grit in an 80 to 20 ratio. The soil matrix was contained in plastic pots with a volume of 1 quart and a surface area of 83.6 square centimeters (cm^2).
(§9) Treatments consisted of the benzyl ester of 4-amino-3-chloro-5-fluoro-6-(4-chloro-2-fluoro-3-methoxy-phenyl)pyridine-2-carboxylic acid (compound A) formulated as an SC (suspension concentrate) and various herbicidal components alone and in combination. Forms of compound A were applied on an acid equivalent basis.
(§10) Other herbicidal components were applied on an acid equivalent or active ingredient basis and included the PSII-inhibiting herbicides, atrazine formulated as Atrazine® 90WDG, metribuzin formulated as Metribuzin 75DF, simazine formulated as Princep Caliber 90, tebuthiuron formulated as Spike 80DF, cyanazine (technical grade material), hexazinone (technical grade material), linuron (technical grade material), terbuthylazine (technical grade material), and diuron formulated as Diuron 4L.
as §4
as §5, with “oil concentrate (COC)” for “oil concentrated”, “(v/v) COC” for “(v/v) crop oil concentrate”, “contained 1.25%” for “contained 1.25+/−0.05%”, “(v/v) COC.” for “(v/v) crop oil concentrate.”
as §6, with “97:3 (v/v)” for “97:3 v/v”, “(v/v) COC” for “(v/v) crop oil concentrate”, “(v/v) COC.” for “(v/v) crop oil concentrate.”
(§11) For treatments comprised of formulated and technical compounds, weighed amounts of the technical materials can be placed individually in 25 mL glass vials and dissolved in a volume of 97:3 (v/v) acetone/DMSO to obtain 12× stock solutions, and measured amounts of the formulated compounds can be placed individually in 25 mL glass vials and diluted in a volume of 1.5% (v/v) COC or water to obtain 12× stock solutions. […] Application solutions can be prepared by adding an appropriate amount of each stock solution (e.g., 1 mL) and diluted to the appropriate final concentrations with the addition of an appropriate amount of an aqueous mixture of 1.5% (v/v) COC so that the final spray solutions contain 1.25% (v/v) COC. As required, additional water and/or 97:3 (v/v) acetone/DMSO can be added to individual application solutions so that the final acetone and DMSO concentrations of the application solutions being compared are 8.1% and 0.25%, respectively.
(§12) All stock solutions and applications solutions were visually inspected for compound compatibility prior to application. Spray solutions were applied to the soil with an overhead Mandel track sprayer equipped with a 8002E nozzles calibrated to deliver 187 L/ha over an application area of 0.503 m^2 at a spray height of 18 inches (46 cm) above average pot height. […]

[3] = test system: XANST (Xanthium strumarium, common cocklebur); assay: Pre-emergence soil-applied mixtures, greenhouse; type: in vivo, Xanthium strumarium L.; conditions: Terbuthylazine 1000 g ai/ha; 27 DAA
Source text: as §8, §9, §10, §4
as §5, with “oil concentrate (COC)” for “oil concentrated”, “(v/v) COC” for “(v/v) crop oil concentrate”, “contained 1.25%” for “contained 1.25+/−0.05%”, “(v/v) COC.” for “(v/v) crop oil concentrate.”
as §6, with “97:3 (v/v)” for “97:3 v/v”, “(v/v) COC” for “(v/v) crop oil concentrate”, “(v/v) COC.” for “(v/v) crop oil concentrate.”
as §11, §12

[4] = test system: ECHCG (Echinochloa crusgalli, barnyardgrass); assay: Postemergence foliar-applied mixtures, direct seeded rice, greenhouse; type: in vivo, Echinochloa crusgalli (L.) Beauv.; conditions: 625 g ai/ha; 21 DAA
Description: as §1, with “When required to ensure good germination and healthy plants, a fungicide treatment and/or other chemical or physical treatment was applied.” left out
as §2, §3, §5, §6
For treatments comprised of formulated and technical compounds, weighed amounts of the technical materials were placed individually in 25 mL glass vials and dissolved in a volume of 97:3 v/v acetone/DMSO to obtain 12× stock solutions, and measured amounts of the formulated compounds were placed individually in 25 mL glass vials and diluted in a volume of 1.5% (v/v) crop oil concentrate or water to obtain 12× stock solutions. […] Application solutions were prepared by adding an appropriate amount of each stock solution (eg, 1 mL) and diluted to the appropriate final concentrations with the addition of an appropriate amount of an aqueous mixture of 1.5% (v/v) crop oil concentrate so that the final spray solutions contained 1.25% (v/v) crop oil concentrate.

[5] = test system: ECHCO (Echinochloa colona, junglerice); assay: as above; type: in vivo, Echinochloa colona (L.) Link; conditions: 21 DAA
Source text: as §1, §2, §3, §4, §5, §6, §7

Compound: N#Cc1cc(I)c(O)c(I)c1 [Ioxynil, 4-hydroxy-3,5-diiodobenzonitrile, reference compound]
- pest or weed control at 300 g/ha ([1]; 480 h, read-out: Visual Weed Control (%) Obs, 300 g ai/ha, 20 DAA): 50%

Compound: CON(C)C(=O)Nc1ccc(Cl)c(Cl)c1 [Linuron, N′-(3,4-dichlorophenyl)-N-methoxy-N-methylurea]
- Visual Weed Control (%) - 27 DAA BRAPP Obs ([2]; Linuron 620 g ai/ha): 0%

Compound: CCNc1nc(Cl)nc(NC(C)(C)C)n1 [Terbuthylazine, 6-chloro-N-(1,1-dimethylethyl)-N′-ethyl-1,3,5-triazine-2,4-diamine, reference compound]
- Visual Weed Control (%) - 27 DAA XANST Obs [3]: 45%

Compound: CCNc1nc(Cl)nc(NC(C)(C)C#N)n1 [Cyanazine, 2-[[4-chloro-6-(ethylamino)-1,3,5-triazin-2-yl]amino]-2-methylpropanenitrile]
- pest or weed control at 275 g/ha ([1]; 480 h, read-out: Visual Weed Control (%) Obs, 275 g ai/ha, 20 DAA): 50%
- Visual Weed Control (%) - 27 DAA BRAPP Obs ([2]; Cyanazine 170 g ai/ha): 0%
- Visual Weed Control (%) - 27 DAA BRAPP Obs ([2]; Cyanazine 440 g ai/ha): 15%
- Visual Weed Control (%) - 27 DAA BRAPP Obs ([2]; Cyanazine 880 g ai/ha): 10%

Compound: CN(C)c1nc(=O)n(C2CCCCC2)c(=O)n1C [Hexazinone, 3-cyclohexyl-6-(dimethylamino)-1-methyl-1,3,5-triazine-2,4(1H,3H)-dione, reference compound]
- Visual Weed Control (%) Obs [4]: 20%
- Visual Weed Control (%) Obs ([5]; 625 g ai/ha): 25%
- Visual Weed Control (%) Obs ([5]; 1250 g ai/ha): 55%
- pest or weed control at 625 g/ha ([1]; 504 h, 625 g ai/ha, 21 DAA, read-out: Visual Weed Control (%) Obs): 80%
